Source: paper PMC5468484 (The Pediatric infectious disease journal, 2017)
“Also recorded” adds a separate entry of the source. Read-outs that look alike come from different tables or passages of the source.

Assays:
[1] = Long term stability of dalbavancin plasma samples; assay type: in vitro ADME, human; settings: plasma (K2-EDTA), 368 days stored at −20°C, LC-MS/MS
Safety evaluation = assay type: in vivo, human
[2] = human plasma; cited from earlier work
[3] = cited from earlier work
[4] = test system: acute bacterial skin and skin structure infections; settings: adults, cited from earlier work
clinical = settings: human, in vivo, iv
[5] = test system: cytochrome P450 isoenzymes; settings: cited from earlier work
[6] = for Terminal half-life: study DUR001-106, single IV dose, post-hoc slope of gamma phase, three compartment model, median (range)
[7] = among the 36 treatment-emergent AEs
[8] = children 3 months to 11 years (N=34)
[9] = children 3 months to 11 years, single IV dose
[10] = nonparametric bootstrap (N=1000) of final model
[11] = three-compartment model, 43 subjects, typical value at weight 40.9 kg

## CN[C@H]1C(=O)N[C@@H]2Cc3ccc(cc3)Oc3cc4cc(c3O[C@@H]3O[C@H](C(=O)O)[C@@H](O)[C@H](O)[C@H]3NC(=O)CCCCCCCCC(C)C)Oc3ccc(cc3Cl)[C@@H](O)[C@@H]3NC(=O)[C@H](NC(=O)[C@@H]4NC(=O)[C@@H](NC2=O)c2cc(cc(O)c2Cl)Oc2cc1ccc2O)c1ccc(O)c(c1)-c1c(O[C@H]2O[C@H](CO)[C@@H](O)[C@H](O)[C@@H]2O)cc(O)cc1[C@@H](C(=O)NCCCN(C)C)NC3=O [dalbavancin]
[1]
  Long term stability of plasma samples: stable
Safety evaluation; N=1 each
  AEs deemed possibly related to dalbavancin treatment: rash, diaper dermatitis, urticaria, and asymptomatic hepatic enzyme elevation
Safety evaluation; [7]
  Treatment-emergent AEs considered mild: 26
  Treatment-emergent AEs considered moderate: 6
  Treatment-emergent AEs considered severe: 4
Safety evaluation; [8]
  Number of treatment-emergent AEs: 36
  Serious or severe treatment-emergent AEs considered related to dalbavancin treatment: None and no serious or severe AEs related to treatment
  Subjects who experienced a serious AE: Five
Safety evaluation; [9]
  Deaths: no deaths were reported
  Tolerability: well tolerated
Safety evaluation; one subject
  AE probably related to study treatment: infusion site discomfort
Safety evaluation; out of 36 treatment-emergent adverse events
  Adverse events assessed as possibly or probably related to treatment: Five
[2]
  Binding to plasma proteins: 93%
[3]; adults
  Volume of distribution at steady-state: 15.9 L
[3]
  Eliminated as the parent compound in feces and urine: ~ 70%
[4]; ABSSSI
  Efficacy of single 1500 mg infusion versus the 2-dose regimen: as effective as the 2-dose regimen; also recorded: noninferior to the 2-dose regimen
[4]; two studies, 2-dose dalbavancin regimen
  Efficacy versus intravenous vancomycin with subsequent oral linezolid in ABSSSI: not inferior; also recorded: noninferior
clinical
  clearance: 1.05 mL/h/kg
clinical; 10 mg/kg
  clearance: 1.23 mL/h/kg
clinical; 15 mg/kg
  clearance: 0.795 mL/h/kg
[5]
  Substrate, inhibitor or inducer of cytochrome P450 isoenzymes: not a substrate, inhibitor, or inducer
[6]; 2 years to <6 years (N=11)
  Terminal half-life: 315 (271–332) h
[6]; 3 months to <2 years (N=11)
  Terminal half-life: 279 (244–298) h
[6]; 6 to 11 years (N=11)
  Terminal half-life: 390 (317–490) h
[6]; (Albumin/3.7)^coefficient
  Power coefficient of albumin on Vc, final model estimate: −0.73
[6]; [10]
  Power coefficient of albumin on Vc, bootstrap median: −0.72
  Power coefficient of weight on volume parameters, bootstrap median: 0.95
[6]; same coefficient for Vc, Vp1, Vp2, ((Weight in kg)/40.9)^coefficient
  Power coefficient of weight on volume parameters, final model estimate: 0.95
[6]; [11]
  Vp1 (volume of distribution for peripheral compartment 1), final model estimate: 2.90 L
  Vp2 (volume of distribution for peripheral compartment 2), final model estimate: 2.93 L
